# Tests used:
# [1] = test system: tumor necrosis factor-alpha; details: cited from earlier work
# [2] = test system: active germinal centers in the spleen; experiment: Dexamethasone pretreatment: ex vivo stem cell binding to splenic sections, spleen weight, MNC and germinal centers (Example 8)
# spleen [3] = experiment: In vivo sequestration of injected CTG-labeled MNC in the spleen, flow cytometry (Example 9); design: species or system mouse; details: cells injected day 7, one hour
# spleen [4] = experiment: Splenic sequestration and circulating numbers of injected CTG-labeled stem cells, flow cytometry (Example 14); format: in vivo, mouse; details: 1 mg IP days -7, -4, -1 (HED 7.4 mg/kg)
# Source text: Control mice (n=4) were IP injected with the same volume per body weight of 70% ethanol diluted 1:10 in PBS. Sixty minutes later the mice were sacrificed by exsanguination and spleens and blood collected for flow cytometry. The spleens were dissociated to single cell suspensions prior to flow cytometry. CTG-labeled bone marrow mononuclear stem cells were detected in the spleen and lysed whole blood using flow cytometry.
# germinal center = experiment: Germinal center intensity by FITC-PNA in spleen (Example 18); format: in vivo, mouse; details: about 48 hours, controls approximately 40
# Method: The mice were sacrificed by exsanguination and then residual blood cells flushed out with 5 U heparin/ml PBS via retrograde flush into the thoracic jugular vein. The spleens were removed, weighed wet, and then fixed in 10% formalin. Subsequently the spleens were sectioned via proprietary methods and then incubated with FITC-PNA at 4 deg.C for 24 hours, washed, placed on slides and immunofluorescent images were captured. Metamorph software was used to quantify the immunofluorescent signal. Average germinal center intensity measured by FITC-PNA average intensity was approximately 40 in controls, reduced to about 33 at the 6 mg/kg HED, reduced to about 22.5 at the 9 mg/kg HED, and further reduced to about 15 at the 11 mg/kg HED.
# blood lymphocytes = experiment: Blood lymphocytes (CBC) after oral dexamethasone (Example 20); format: in vivo, mouse; details: placebo about 1700
# [5] = test system: osteoarthritis (OA), tendon injury, or osteochondral defect; experiment: Equine outcome after stem cell (MSC) injection with dexamethasone pretreatment (Example 16); format: in vivo; details: 5.7 mg/kg HED, one horse
# Method: Approximately 48 hours later male or female horses with osteoarthritis (OA), tendon injury, or osteochondral defect were intra-articularly (IA) or intra-tendon injected with either allogeneic adipose-derived mesenchymal stem cells (MSCs) or with autologous, bone marrow derived culture expanded MSCs.
# equine bone marrow MSC [6] = experiment: Osteocyte, chondrocyte and adipocyte differentiation of MSC from treated horses (Example 21); format: in vivo, horse; details: for osteocyte differentiation: not different
# Method: 1 g of Alizarin Red S (Sigma-Aldrich) was mixed with 50 ml of DI water to make a 50 ml solution of Alizarin Red S 2%. The pH of the Alizarin Red S solution was adjusted to 4.1-4.3 using ammonium hydroxide. The solution was filtered through a vacuum filtration system, then transferred to a 50 ml conical tube and stored protected from light.
# 250 mg of Oil Red O (Sigma-Aldrich) was added to 50 mL of isopropanol to make a 50 ml solution of Oil Red O 0.5%. The solution was mixed well, then filtered through a vacuum filtration system. After that, it was stored as a stock solution in a 50 ml conical tube wrapped in aluminum foil protected from light. On the staining day, 3 parts of stock Oil Red O 0.5% were mixed with 2 parts of DI water to make a working stock solution. This solution was incubated for 10 min and the forming precipitate removed by filtration through a sterile filter.
# 50 mg of Safranin O (Sigma-Aldrich) was added to 50 ml of DI water to make a 50 ml solution of Safranin O 0.1%. The solution was mixed well, then filtered through a vacuum filtration system. After that, it was stored in 50 ml conical tube protected from light.
# After BM withdrawal from each vial for the Giemsa staining assay, another 100 μl of BM was withdrawn, and plated in CFU-F assay media (10 ml medium per T25 flasks; 2× total) 36 hours after it was extracted from the horse. MSCs were passaged in MesenCult™ MSC Basal Medium (Human; growth medium; including stimulatory supplement) until passage number 3 (P3). After trypsinization of the cells, they were mixed with an equivalent volume of growth medium, centrifuged (230 g for 3 min at RT) and resuspended in 1 ml of growth medium. Cells were counted and seeded using 30,000 cells/well of a 12 well plate (30,000 cells/well seeded in 3 wells; T1, T2 and one negative control). The seeded cells (P4) of T1 and T2 were left expanding in growth medium for two days, followed by a medium change into osteocyte differentiation medium (Stem Pro Osteocyte Differentiation Basal Medium and supplement; Gibco). The latter was changed every 2-3 days for all the plates. Morphological changes were documented by taking images using the EVOS XL Core microscope. Day 1 corresponds to MSCs being in differentiation medium for 24 h, Day 2 for 48 h etc. Two time points (T1: Day 4 and T2: Day 7 with one 12-well plate for both time points) were chosen for the osteocyte staining (Alizarin Red S) to assess the onset as well as the differentiation extent of MSCs from AVM0703 vs Placebo treated horses. […]
# MSCs were passaged in MesenCult™ MSC Basal Medium (Human; including stimulatory supplement) until passage number 4 (P4). […] Cells were counted and seeded using a density of 80,000 cells/well of a 12 well plate (80,000 cells/well seeded in 3 wells; T1, T2 and one negative control). […]
# equine bone marrow MSC [7] = experiment: Equine bone marrow CFU-F assay after IV dexamethasone (Example 21); format: in vivo, horse; details: Day 14 after plating; 3.18 mg/kg (HED 6 mg/kg) IV; placebo about 46.6
# [8] = single 1 mg, 7 days prior to harvest
structure (smiles),measurement,setting,value
Nc1cccc2c1CN(C1CCC(=O)NC1=O)C2=O (stereo not drawn) [Lenalidomide],potency in inhibiting tumor necrosis factor-alpha relative to thalidomide,[1],"50,000 times"
C[C@@H]1C[C@H]2[C@@H]3CCC4=CC(=O)C=C[C@]4(C)[C@@]3(F)[C@@H](O)C[C@]2(C)[C@@]1(O)C(=O)CO [dexamethasone],reduction of mononuclear stem cell binding to spleen sections,[2]; day 7 after single 1 mg IP,30-40%
same,increase of percentage of stem cells within MNC fractions from whole blood or bone marrow compared to control (average),[2]; [8],32%
same,reduction of PNA labeled germinal centers,[2]; [8],up to 24%
same,reduction of average circulating MNC number,[2]; [8],34%
same,reduction of spleen weights (average),[2]; [8],22%
same,reduction of MNC CTG total cell number accumulation in the spleen,"spleen [3]; 3 mgs total (1 mg ip day 0, 2 and 5)",approximately 70%
same,reduction of MNC CTG total cell number accumulation in the spleen,spleen [3]; total 2 mgs (1 mg ip day 0 and day 4),33-43%
same,circulating numbers of CTG-stem cells,"spleen [4]; controls 4,500","49,000 CTG-stem cells"
same,splenic sequestration 60 minutes after injection,"spleen [4]; controls 665,000","285,000 CTG-stem cells"
same,average germinal center intensity measured by FITC-PNA average intensity,germinal center; 6 mg/kg HED IP,about 33
same,average germinal center intensity measured by FITC-PNA average intensity,germinal center; 9 mg/kg HED IP,about 22.5
same,average germinal center intensity measured by FITC-PNA average intensity,germinal center; 11 mg/kg HED IP,about 15
same,lymphocytes,blood lymphocytes; single acute HED 12 mg/kg oral on day -2,about 170 per microliter
same,lymphocytes,"blood lymphocytes; two repeat doses HED 6 mg/kg oral, day -2 and day -1",about 1000 per microliter
same,"return to work, tendon injury (DDFT grade 3)",[5],≤ 6 months
same,osteocyte differentiation,"equine bone marrow MSC [6]; day 4 of assay, placebo 1.75",3.19
same,chondrocyte culture area,"equine bone marrow MSC [6]; day 6 of assay, placebo 23.4%",40.1%
same,osteocyte differentiation,"equine bone marrow MSC [6]; day 7 of assay, placebo 4.29",4.58
same,adipocyte numbers,"equine bone marrow MSC [6]; day 24 of assay, placebo 4.8, no difference",7.4 adipocytes
same,MSC number (CFU-F),equine bone marrow MSC [7],about 78.8 CFU-F

# Reference: patent US10426740B1, “Compositions and methods to inhibit stem cell and progenitor cell binding to lymphoid tissue and for regenerating germinal centers in lymphatic tissues” (AVM BIOTECHNOLOGY, LLC, priority 2010, dated 2019)
